Laboratory results from patent US8846758B2, “Methods of decreasing glycosylated hemoglobin in patients with dyslipidemia” (TWi Biotechnology, Inc., priority 2011, dated 2014).

Legend:
[1] = Same study: body weight and lipid profiles; assay type: in vivo, human; conditions: diacerin 50 mg twice daily, 24 weeks
Description: This was a prospective, randomized, double-blind, and parallel comparison study comparing diacerin 50 mg versus placebo in patients with type 2 diabetes mellitus inadequately controlled by previous antidiabetic therapy. The starting dose of diacerin was 50 mg once daily every morning for 4 weeks and could be adjusted up to 50 mg twice daily (morning and evening) if patients have become accustomed to the medication. Patients were screened for eligibility four weeks (week—4) prior to entry at baseline (week 0). During this 4-week screening period, the participants continued their previous antidiabetic therapy, dietary habits, and other lifestyle habits. In order to be eligible for randomization following the 4-week screening period, patients must not have experienced hypoglycemia and must have had two fasting plasma glucose (FPG) measurements of between 135 to 250 mg/dL. At the end of the screening period, patients who met eligibility requirements were randomly assigned to receive diacerin 50 mg or placebo twice a day for 24 weeks observation. During treatment/observation period, the previous antidiabetic therapy including the class and/or dosage was not changed. […]
For the efficacy parameters, descriptive statistics were presented by visit. […] The area under the concentration-time curve (AUC) was used for evaluating the parameters measured by oral glucose tolerance test. […]

[2] = test system: patients with type 2 diabetes mellitus inadequately controlled by previous antidiabetic therapy; experiment: Randomized, double-blind, placebo-controlled study of diacerin in uncontrolled type 2 diabetes mellitus: HbA1c; assay type: in vivo, human
From the text: To evaluate the efficacy and safety of diacerin for the treatment of type 2 diabetes mellitus (DM).
To compare the efficacy of add-on diacerin with no add-on treatment (placebo) on HbA1c after 24-week double-blind treatment in Type 2 DM patients inadequately controlled by previous antidiabetic therapy.
Male or female patients (BMI≦35 kg/m^2) with type 2 diabetes mellitus on a stable oral hypoglycemic monotherapy for at least 3 months prior to screening visit. The HbA1c measurements taken at screening visit must be between 7% and 12%. Patients enrolled in the study must be receiving one or more oral antihyperglycemic agents including sulfonylurea, biguanides, alpha-glucosidase inhibitors, thiazolidinediones, and nonsulfonylurea insulin secretagogues.
This was a prospective, randomized, double-blind, and parallel comparison study comparing diacerin 50 mg versus placebo in patients with type 2 diabetes mellitus inadequately controlled by previous antidiabetic therapy. The starting dose of diacerin was 50 mg once daily every morning for 4 weeks and could be adjusted up to 50 mg twice daily (morning and evening) if patients have become accustomed to the medication. Patients were screened for eligibility four weeks (week—4) prior to entry at baseline (week 0). During this 4-week screening period, the participants continued their previous antidiabetic therapy, dietary habits, and other lifestyle habits. In order to be eligible for randomization following the 4-week screening period, patients must not have experienced hypoglycemia and must have had two fasting plasma glucose (FPG) measurements of between 135 to 250 mg/dL. At the end of the screening period, patients who met eligibility requirements were randomly assigned to receive diacerin 50 mg or placebo twice a day for 24 weeks observation. During treatment/observation period, the previous antidiabetic therapy including the class and/or dosage was not changed. Patients were asked to attend the center on eight occasions (screening, baseline, week 4, 8, 12, 16, 20 and 24) during the trial. The total study duration including the screening period for each patient was 28 weeks. There was a two weeks long follow-up period after completion of the treatment/observation. During this follow-up period, patients were followed for adverse events.
The difference (diacerin vs. placebo) of HbA1c reduction between the two treatment groups was analyzed by analysis of covariance (ANCOVA) with baseline value as a covariate. The corresponding 95% confidence interval was calculated. Within-group changes were also analyzed, with paired t test used to evaluate differences from baseline in each treatment group.
For the efficacy parameters, descriptive statistics were presented by visit. Statistical analysis was performed to assess the mean change from baseline. The area under the concentration-time curve (AUC) was used for evaluating the parameters measured by oral glucose tolerance test.
A dyslipidemia sub-group was assembled, wherein subjects had the following baseline levels: a) plasma cholesterol levels greater than 200 mg/dl, or b) plasma triglyceride levels greater than 150 mg/dl, or c) plasma LDL levels greater than 100 mg/dl. The effects of administering […] to the patients in this dyslipidemia sub-group were analyzed by paired t-test compared with the placebo group.
Subjects (n=76) were randomized in a 1:1 ratio to receive twice-daily diacerin 50 mg (n=38), or placebo (n=38) for 24 weeks. 26 subjects in the diacerin group finished the whole treatment period. Within these 26 subjects, there were 16 subjects with plasma cholesterol levels greater than 200 mg/dl, or plasma triglyceride levels greater than 150 mg/dl, or plasma LDL levels greater than 100 mg/dl at baseline respectively. Plasma cholesterol, triglyceride and LDL levels in the other 10 subjects were normal in the baseline. Thus, there were 16 subjects in the dyslipidemia subgroup.

CC(=O)Oc1cccc2c1C(=O)c1c(OC(C)=O)cc(C(=O)O)cc1C2=O [diacerin, 4,5-bis(acetyloxy)-9,10-dioxo-2-anthracene carboxylic acid]
changes in body weight compared with the placebo group [1]: no significant changes
changes in lipid profiles compared with the placebo group [1]: no significant changes
HbA1c mean change from baseline, week 24 ([2]; All subjects (N=26) completing 24 weeks, diacerin 50 mg twice daily add-on): −0.63%
HbA1c mean change from baseline, week 24 ([2]; Dyslipidemia subgroup (N=16), diacerin 50 mg twice daily, 24 weeks): −0.82%
HbA1c mean change from baseline, week 24 ([2]; Hyper LDL-cholesterolemia subgroup (N=11), diacerin 50 mg twice daily, 24 weeks): −0.84%
HbA1c mean change from baseline, week 24 ([2]; Hypercholesterolemia subgroup (N=7), diacerin 50 mg twice daily, 24 weeks): −0.76%
HbA1c mean change from baseline, week 24 ([2]; Hypertriglyceridemia or hypercholesterolemia subgroup (N=14), diacerin 50 mg twice daily, 24 weeks): −0.89%
HbA1c mean change from baseline, week 24 ([2]; Hypertriglyceridemia subgroup (N=11), diacerin 50 mg twice daily, 24 weeks): −0.83%
HbA1c mean change from baseline, week 24 ([2]; Normal lipid profiles subgroup (N=10), diacerin 50 mg twice daily, 24 weeks): −0.30%
decrease of HbA1c levels compared with the placebo group ([2]; after 24-week treatment, all subjects, p<0.05): about 0.63%
patients whose HbA1c levels decreased by more than or equal to 0.5% ([2]; diacerin group, 13 of 26 patients, 24 weeks): 50%
patients whose HbA1c levels decreased by more than or equal to 0.5% ([2]; dyslipidemia subgroup, 10 of 16 patients, 24 weeks): 62.5%
decrease of HbA1c levels compared with the baseline ([2]; dyslipidemia subgroup, after 24-week treatment): about 0.82%
patients whose HbA1c levels decreased by more than or equal to 0.5% ([2]; hypercholesterolemia subgroup, 4 of 7 patients, 24 weeks): 57.1%
patients whose HbA1c levels decreased by more than or equal to 0.5% ([2]; hypertriglyceridemia or hypercholesterolemia subgroup, 10 of 14 patients, 24 weeks): 71.4%
patients whose HbA1c levels decreased by more than or equal to 0.5% ([2]; hypertriglyceridemia subgroup, 7 of 11 patients, 24 weeks): 63.6%
patients whose HbA1c levels decreased by more than or equal to 0.5% ([2]; normal plasma lipid profiles, 4 of 10 patients, 24 weeks): 40%
decrease of HbA1c levels compared with the baseline ([2]; type 2 diabetic patients with normal lipid profile, after 24-week treatment): about 0.30%
